The source of these data is a melting point compilation (Tetko et al.; mined from patent text by program, amines drawn as free bases though some values may be those of a salt).

Residues, ends and D or L forms follow the SMILES beside them. *: point of attachment. Cbz = O=C(OCc1ccccc1)*

Take `C=CCN(C)C(=O)/C=C/CSc1nc(N)cc(Cl)n1`: the melting point (usually the temperature, or range, at which the solid turns liquid) lay within 140 to 142 °C.

With `CC1(C)CCCC(C)(C)N1Cc1ccc2cc(NC(=O)c3ccc(-c4ccc(Cl)cc4)cc3)ccc2c1`, the melting point lay within 244 to 246 °C.

Compound `C=CCC(O)CCCCCCCCCCCCCCC` (configuration not stated) showed a melting point of 37 to 39.5 °C.

Compound `COc1ccc(OC(=O)CN2CCN(Cc3cc(OC)c(OC)c(OC)c3)CC2)cc1` returned a melting point of 94 to 97 °C.

Turning to `CCN(CCCCC1CCN(C(c2ccccc2)c2ccccc2)CC1)C(=O)C=Cc1cccnc1`, the melting point was 115 to 117 °C.

Turning to `COc1cn(-c2ccc(C(F)(F)F)cc2F)nc(-c2ccnn2-c2ccccc2)c1=O`, the melting point was in the range of 169 to 171 °C.

In the case of `CCCN1CCC(c2c(O)cc(O)c3c(=O)cc(-c4ccccc4Cl)oc23)C1CO` (configuration not stated), the melting point lay in the range of 94 to 96 °C.

Turning to `NCC(=O)NCc1cccnc1`, the melting point was in the range of 87 to 88 °C.

`CC12CC3C(=O)OC(C1O)C3(C)O2` (configuration not stated) returned a melting point of 95 to 96.5 °C.

`Cc1cc(N)c(S(N)(=O)=O)cc1-c1ccccn1` came in with a melting point of 229 to 231 °C.

`CC(C)CC(NS(=O)(=O)c1ccc(Cl)cc1)C(=O)Nc1ccc(CC(=O)O)cc1` (racemic) gave a melting point of 208 to 209 °C.

In turn, `Cc1ccc(Cl)c2sc(N)nc12` registered a melting point of 206 °C.

For `COC(=O)CC(=O)C=Cc1ccccc1`, the melting point is 83 °C.

`COc1ccc(-c2c(C(N)=O)n(C)c(=O)c3ncccc23)cc1` showed a melting point of over 310 °C.

For the compound `Cc1ccc(NC(=O)C(CC2CCCC2)c2ccc(S(C)(=O)=O)cc2)nc1` (configuration not stated), the melting point lay in the range of 82 to 85 °C.

Compound `NC(=O)c1ccc(O)c(I)c1` had a melting point of 90 to 95 °C.

On to `CC(=O)NCc1ncccc1OCc1ccccc1`, for which the melting point fell in the range of 94 to 96 °C.

As for `O=C(Nc1ccc(Cl)nc1Cl)c1ccccc1O`, the melting point lay in the range of 179 to 186 °C.

Turning to `COCn1c(-c2nc3c(OC)ccc(N4CCOCC4)c3s2)nc2ccc(C3CCNC3)nc21` (configuration not stated), the melting point was 120 to 130 °C.

For `Nc1nc2cc(OCc3ccccc3)ccc2c2c1nc(CCCCNC(=O)Nc1ccccc1)n2CCOc1ccccc1`, the melting point was in the range of 186 to 187 °C.

For the compound `CN1CC(CCCl)Oc2ccc(Br)cc2C1=S` (configuration not stated), the melting point was 118 to 120 °C.

Regarding `O=C(Oc1ccc(Cl)cc1)n1c2c(c(=O)n(C3CCCCO3)c1=O)CCC2` (configuration not stated), the melting point came out at 126 °C.

In the case of `CCN(CC)CCOC(=O)C1=C(C)Nc2ccnc(OC(C)C)c2C1c1ccccc1C(F)(F)F` (configuration not stated), the melting point is 198 to 200 °C.

Compound `CCON=C(CC)C1=C(O)CC(c2ccc3c(c2)N(COC)C(=O)CO3)CC1=O` (configuration not stated) had a melting point of 101 to 103 °C.

As for `CC(=O)CSc1c([N+](=O)[O-])ccc(F)c1Cl`, the melting point was in the range of 91 to 92 °C.

Compound `CNc1cc(OC)ccc1[N+](=O)[O-]` came in with a melting point of 107 to 110 °C.

In the case of `COc1cc(C(C)=O)ccc1OCCN1CCC(C(O)(c2ccc(F)cc2)c2ccc(F)cc2)CC1`, the melting point was in the range of 131 to 135 °C.

For `CCOC(=O)CCc1ccc(OC)c(OCc2ccccc2)c1`, the melting point was 49.5 to 50.5 °C.

With `Cc1cc(OCC(F)(F)F)c(NC(=O)CN2CCN(CCO)CC2)c(OCC(F)(F)F)n1`, the melting point is 117 to 118 °C.

As for `CC(CN1C(C)CCC1C)N1c2ccccc2Sc2ccc(C#N)cc21` (mixture of isomers), the melting point turned out to be 105 °C.

With `CC(C)(O)c1cc(Br)ccc1NC(=O)CCl`, the melting point lay within 133 to 134 °C.

Take `C#CCn1c(=O)sc2cc(F)c(-n3c(=O)cc(C)n(C)c3=O)cc21`: the melting point was in the range of 180 to 181 °C.

`COC(=O)C(Cc1ccc(O)cc1)NC(=O)C(CO)NC(=O)C(Cc1c[nH]c2ccccc12)NC(=O)OCc1ccccc1` (stereo not drawn) (Cbz-Trp-Ser-Tyr-OMe; configuration not given here) returned a melting point of 149 to 152 °C.

As for `COc1ccc(C2CNC(=O)O2)cc1OC` (configuration not stated), the melting point is 114 to 117 °C.

In turn, `CC(=O)NC[C@H]1CN(c2ccc(N3CCC(=C(C#N)Cc4ccccc4)CC3)c(F)c2)C(=O)O1` displayed a melting point of 98 to 100 °C.

In turn, `COC(=O)C(=O)c1ccc(OCCOc2ccc3ccccc3c2)c(F)c1` gave a melting point of 136 to 138 °C.

Compound `COc1nc(C(=O)O)c(C(=O)NC(C)(C)C)s1` displayed a melting point of 105 to 110 °C.

Compound `CCCC(CO)(CCC)N(OC(C)c1ccccc1)C(C)(C)CO` (configuration not stated) came in with a melting point of 88 to 92 °C.

For `CCOC(=O)C1=C(COCCN(C)S(C)(=O)=O)NC(C)=C(C(=O)OC)C1c1ccccc1Cl` (configuration not stated), the melting point fell in the range of 93 to 95 °C.

In the case of `Cc1cccc(-c2cnc3c(N)ncnc3n2)c1`, the melting point fell in the range of 248 to 250 °C.

Regarding `CCOc1cc(-c2ccccc2)nc2nn(C)cc12`, the melting point lay within 170 to 171 °C.

For the compound `Cn1ncc2c1-c1c(Oc3ccc(OCc4ccc(Cl)cc4)cc3)sc(C(N)=O)c1CC2`, the melting point fell in the range of 216 to 217 °C.

Regarding `Cc1cc2c(cc1Br)C(C)(C)CCC2(C)C`, the melting point was determined as 73 °C.

Compound `CONC(=O)c1ccccc1NC(=O)Cc1cccc(Br)c1` gave a melting point of 166 °C.

Turning to `CN(C)S(=O)(=O)N1CCN(S(=O)(=O)c2ccc(Oc3ccccc3)cc2)[C@@H](C(=O)NO)C1`, the melting point fell in the range of 153 to 155 °C.

With `CSc1cccc(Oc2ncc(F)cc2C(=O)N[C@@H]2CCCC[C@@H]2O)c1` (relative stereo), the melting point was 99 to 101 °C.

In the case of `CNC(=O)C1=C(C)OC(C)=C(C(=O)NC)C1c1ccc(Cl)cc1`, the melting point was 256 to 259 °C.

`Nc1nc2ccccc2c2c1nc1n2C(COc2ccccc2)COC1` (configuration not stated) came in with a melting point of 189 to 195 °C.

In turn, `NC1=Nc2ccc(I)cc2C(c2ccccn2)=NC1` gave a melting point of 228 to 229 °C.

Take `CC(C)N(CCC(CCN(C(C)C)C(C)C)(C(N)=O)c1ccc(-c2ccccc2)cc1)C(C)C`: the melting point lay within 110 to 111 °C.

On to `CC(C)(C(N)=O)n1cc(-c2ccc(Oc3ccccc3)cc2)c2c(N)ncnc21`, for which the melting point is 227 to 228 °C.

Compound `COC(C)c1cc(N2C(=O)C3=C(CCCC3)C2=O)c(F)cc1Cl` (configuration not stated) had a melting point of 141 to 144 °C.

In turn, `O=C(O)CCCCCCCCCCOc1cc(OCCCCCCCCCCC(=O)O)cc(C(=O)N(CC(=O)O)CC(=O)O)c1` displayed a melting point of 134 to 140 °C.

With `CSc1ccc(C(=O)Nc2ccc3ccc(Cl)nc3n2)cc1`, the melting point was 199 °C.

For the compound `CC1=C(C(=O)OCc2ccccc2)C(c2cccc(Cl)c2Cl)C(C(=O)OCc2ccccc2)=C(C)N1`, the melting point was in the range of 131 to 132 °C.

`COC=C(C(=O)OC)c1ccccc1C#CC1=CCN(c2ccc(Cl)cc2)O1`: the melting point fell in the range of 107 to 110 °C.

As to `COc1cc(OC)c2c(=O)[nH]c(-c3ccc(OCC(N)=O)cc3)nc2c1`, the melting point was 309 to 311 °C.

`CC(C)(C)c1cc(C#Cc2ccc(NS(C)(=O)=O)cc2Cl)cc(N2CCC(=O)NC2=O)c1`: the melting point lay in the range of 278 to 280 °C.

For the compound `CC(C)(C)c1ccc(C(=O)Nc2cn3c(CO)cccc3n2)cc1`, the melting point fell in the range of 229 to 230 °C.

As to `CCOC(=O)C(=CNc1cscc1OC)C(=O)OCC`, the melting point lay within 100 to 102 °C.

With `O=c1c2cc(Cl)ccc2nc2n1CS(=O)(=O)N2`, the melting point was over 300 °C.

In turn, `CC(C)CC(=O)Nc1ccc(-c2ccnc3c(C(=O)c4cccs4)cnn23)s1` returned a melting point of 268 to 270 °C.

`O=C1C2C=CCCC2C(=O)N1CCO` (configuration not stated): the melting point was in the range of 48 to 51 °C.

Take `Cc1cc(-c2c(F)cc3c(=O)c(C(=O)O)cn4c3c2SC[C@@H]4C)cc(C)n1`: the melting point was in the range of 328 to 331 °C.

As to `CNC(=O)[C@@H]1CSCN1S(=O)(=O)c1ccc(Cl)c(COc2cccc3c(-n4ccnc4)cc(C)nc23)c1Cl`, the melting point was 120 °C.

As to `CCN1CC(=O)N(C(C)c2ccc(F)cc2)C1=S` (configuration not stated), the melting point is 93 to 95 °C.

Take `N#Cc1ccc(N(Cc2ccc(OCc3ccccc3)cc2)n2cnnc2)cc1-c1ccoc1`: the melting point is 155 to 156 °C.

With `CS(=O)(=O)Oc1cnc2cc(C(F)(F)F)ccc2c1O`, the melting point worked out at 220 °C.

`COC(=O)C(Cc1ccc(OS(=O)(=O)C(F)(F)F)c(OS(=O)(=O)C(F)(F)F)c1)NC(=O)OC(C)(C)C` (configuration not stated): the melting point was in the range of 80 to 82 °C.

As to `CCC(=O)c1ccc(C#C[Si](C)(C)C)cc1`, the melting point is 36 to 37 °C.

Regarding `CCOC(=O)[C@@]1(C)CSC(c2ccc(OCCOCCOC)cc2O)=N1`, the melting point is 68 to 70 °C.

In turn, `CS(=O)(=O)c1ccc(C(CC2CCCC2)C(=O)Nc2ccccn2)cc1F` (configuration not stated) gave a melting point of 76 to 79 °C.

`CCN(Cc1ccc(Cl)nc1)C(=C[N+](=O)[O-])N(C)C(=O)OCOC(=O)c1ccccc1`: the melting point was in the range of 62 to 63 °C.

`CON(c1ccc([N+](=O)[O-])cc1Cl)S(=O)(=O)c1ccc(Cl)c([N+](=O)[O-])c1` yielded a melting point of 138 to 139 °C.

Compound `CC(=O)c1cccc(NC(=O)c2nnnn2Cc2ccccc2)c1O` yielded a melting point of 155 to 157 °C.

With `O=C(O)COc1ccc(-c2c3ccccc3cc3sc4ccccc4c23)cc1`, the melting point lay within 221 to 223 °C.

Take `CCCCN(CCCC)CCCCCOc1ccc(S(=O)(=O)c2c(CC)cn3ccccc23)cc1`: the melting point is 89 to 90 °C.

`CN1CCCCC1CCc1ccccc1NC(=O)c1ccccc1C(=O)O` (configuration not stated) had a melting point of 171 to 172 °C.

In turn, `CC(C)CCCC(C)C1CCC2C3CC=C4CC(NC(=O)CCNC(=O)CCCCCNc5ccc([N+](=O)[O-])cc5[N+](=O)[O-])CCC4(C)C3CCC12C` (configuration not stated) had a melting point of 197 to 198 °C.

`O=C1c2cscc2C(=O)c2cscc21` yielded a melting point of 340 °C.

The compound `CCCc1c(Cc2ccc(-c3ccccc3C#N)cc2)c(O)nc2ccnn12` had a melting point of 236 °C.

`COc1ccc2nc(COc3cccc(OCc4cccc(C)c4C(=O)O)c3)ccc2c1` yielded a melting point of 176 to 179 °C.

Compound `Cc1cc(C)c(N2CCCCC2=O)c(Cl)c1` had a melting point of 108 to 109 °C.

`O=C1C(CCO)Oc2ccc(C(F)(F)F)cc2N1Cc1cccc(Cl)c1` (configuration not stated): the melting point was 92 to 94 °C.

As to `COC(=O)c1cc([N+](=O)[O-])c[nH]1`, the melting point was in the range of 196 to 197 °C.

For `COc1ccc2c(c1)CCc1c(Cl)cccc1S2`, the melting point lay within 73 to 74 °C.

On to `CC(=O)Nc1ccc(-c2ccc3c(c2)C(C)(C)OC(=O)N3)cc1F`, for which the melting point is 245 to 247 °C.
